Laboratory results as given in US20250034105A1, “IS[…] N-METHYL-1,3-BENZODIOXOLYLBUTANAMINE (MBDB) AND STEREOISOMERS THEREOF” (Terran Biosciences Inc., priority 2021, published 2025).

Assay: Metabolic stability in human liver microsomes
Format: in vitro ADME
Conditions: for differences in half-life and intrinsic clearance compared to rac-MBDB HCl salt (reference compound) / differences in half-life and intrinsic clearance compared to R-MBDB HCl salt (reference compound) / differences in half-life and intrinsic clearance compared to S-MBDB HCl salt (reference compound): based on Table Ex7; for half-life at 0.25 μM / microsomal CLint at 0.25 μM: pH 7.4, NADPH; for half-life at 0.25 μM / microsomal CLint at 0.25 μM / CLint / t1/2: 37° C.; for CLint / t1/2: NADPH
Description: Microsomal Assay: Human liver microsomes (20 mg/mL) were obtained. β-nicotinamide adenine dinucleotide phosphate, reduced form (NADPH), magnesium chloride (MgCl2), and dimethyl sulfoxide (DMSO) were purchased from Sigma-Aldrich. Determination of Metabolic Stability: 7.5 mM stock solutions of test compounds of the above structural formula (e.g., of an embodiment or aspect of embodiment thereof described herein), or pharmaceutically acceptable salt thereof, are prepared in DMSO. […] The diluted microsomes were added to wells of a 96-well deep-well polypropylene plate in triplicate. […] Reactions were initiated by addition of pre-warmed NADPH solution. The final reaction volume is 0.5 mL and contains 4.0 mg/mL human liver microsomes, 0.25 μM test compound, and 2 mM NADPH in 0.1 M potassium phosphate buffer, pH 7.4, and 3 mM MgCl2. The reaction mixtures were incubated at 37° C., and 50 pL aliquots were removed at 0, 5, 10, 20, and 30 minutes and added to shallow-well 96-well plates which contain 50 pL of ice-cold ACN (acetonitrile) with internal standard to stop the reactions. The plates were stored at 4° C. for 20 minutes after which 100 pL of water was added to the wells of the plate before centrifugation to pellet precipitated proteins. Supernatants were transferred to another 96-well plate and analyzed for amounts of parent remaining by LC-MS/MS using an Applied Bio-systems API 4000 mass spectrometer. The same procedure was followed for the non-enriched counterpart of the compound and the positive control, 7-ethoxycoumarin (1 μM). Testing was done in triplicate.
Data analysis: The in vitro T1/2s for test compounds were calculated from the slopes of the linear regression of % parent remaining (In) vs incubation time relationship.
k=−[slope of linear regression of % parent remaining (In) vs incubation time] The apparent intrinsic clearance was calculated using the following equation: […]

For `Cl.[2H]C1([2H])Oc2ccc(CC(CC)NC)cc2O1` (racemic) [Compound 8, 1-(2,2-Dideuterio-1,3-benzodioxol-5-yl)-N-methyl-butan-2-amine hydrochloride], the “differences in half-life and intrinsic clearance compared to rac-MBDB HCl salt (reference compound)” value was “significant differences”, the half-life at 0.25 μM was 1.34 h and the microsomal CLint at 0.25 μM was 17.2 µL/min/mg.

`CC[C@H](Cc1ccc2c(c1)OCO2)NC.Cl` [R-MBDB HCl salt] gave a CLint of 11.7 μL/min/mg protein and a t1/2 of 1.98 h.

In the case of `Cl.[2H]C([2H])([2H])NC(CC)Cc1ccc2c(c1)OCO2` (racemic) [Compound 2, 1-(1,3-Benzodioxol-5-yl)-N-(trideuteriomethyl)butan-2-amine hydrochloride], the “differences in half-life and intrinsic clearance compared to rac-MBDB HCl salt (reference compound)” value is reported as “demonstrates differences”, the half-life at 0.25 μM is reported as 1.87 h and the microsomal CLint at 0.25 μM is reported as 12.4 µL/min/mg.

In the case of `Cl.[2H]C([2H])([2H])N[C@H](CC)Cc1ccc2c(c1)OCO2` [Compound 1, (2R)-1-(1,3-Benzodioxol-5-yl)-N-(trideuteriomethyl)butan-2-amine hydrochloride], the “differences in half-life and intrinsic clearance compared to R-MBDB HCl salt (reference compound)” value is reported as “significant differences”, the half-life at 0.25 μM is reported as 1.61 h and the microsomal CLint at 0.25 μM is reported as 14.3 µL/min/mg.

With `COc1ccc2c(c1)[C@]13CCCC[C@@H]1[C@H](C2)N(C)CC3` [dextromethorphan] the CLint was 53.4 μL/min/mg protein.

Molecule `CCC(Cc1ccc2c(c1)OCO2)NC.Cl` (racemic) [rac-MBDB HCl salt] has a CLint of 11.9 μL/min/mg protein and a t1/2 of 1.93 h.

With `Cl.[2H]C1([2H])Oc2ccc(C[C@H](CC)NC)cc2O1` [Compound 9, (2S)-1-(2,2-Dideuterio-1,3-benzodioxol-5-yl)-N-methyl-butan-2-amine hydrochloride] the “differences in half-life and intrinsic clearance compared to S-MBDB HCl salt (reference compound)” value was “significant differences”, the half-life at 0.25 μM was 0.867 h and the microsomal CLint at 0.25 μM was 26.7 µL/min/mg.

With `Cl.[2H]C([2H])([2H])NC(CC)Cc1ccc2c(c1)OC([2H])([2H])O2` (racemic) [Compound 4, 1-(2,2-Dideuterio-1,3-benzodioxol-5-yl)-N-(trideuteriomethyl)butan-2-amine hydrochloride] the “differences in half-life and intrinsic clearance compared to rac-MBDB HCl salt (reference compound)” value was “significant differences”, the half-life at 0.25 μM was 0.7 h and the microsomal CLint at 0.25 μM was 33 µL/min/mg.

For `Cl.[2H]C([2H])([2H])N[C@H](CC)Cc1ccc2c(c1)OC([2H])([2H])O2` [Compound 5, (2R)-1-(2,2-Dideuterio-1,3-benzodioxol-5-yl)-N-(trideuteriomethyl)butan-2-amine hydrochloride], the “differences in half-life and intrinsic clearance compared to R-MBDB HCl salt (reference compound)” value was “significant differences”, the half-life at 0.25 μM was 0.405 h and the microsomal CLint at 0.25 μM was 57.1 µL/min/mg.

For `CC[C@@H](Cc1ccc2c(c1)OCO2)NC.Cl` [S-MBDB HCl salt], the CLint was 8.06 μL/min/mg protein and the t1/2 was 2.87 h.

For `Cl.[2H]C([2H])([2H])N[C@@H](CC)Cc1ccc2c(c1)OCO2` [Compound 3, (2S)-1-(1,3-Benzodioxol-5-yl)-N-(trideuteriomethyl)butan-2-amine hydrochloride], the “differences in half-life and intrinsic clearance compared to S-MBDB HCl salt (reference compound)” value was “demonstrates differences”, the half-life at 0.25 μM was 2.88 h and the microsomal CLint at 0.25 μM was 8.04 µL/min/mg.

For `Cl.[2H]C([2H])([2H])N[C@@H](CC)Cc1ccc2c(c1)OC([2H])([2H])O2` [Compound 6, (2S)-1-(2,2-Dideuterio-1,3-benzodioxol-5-yl)-N-(trideuteriomethyl)butan-2-amine hydrochloride], the “differences in half-life and intrinsic clearance compared to S-MBDB HCl salt (reference compound)” value was “significant differences”, the half-life at 0.25 μM was 0.91 h and the microsomal CLint at 0.25 μM was 25.4 µL/min/mg.

In the case of `Cl.[2H]C1([2H])Oc2ccc(C[C@@H](CC)NC)cc2O1` [Compound 7, (2R)-1-(2,2-Dideuterio-1,3-benzodioxol-5-yl)-N-methyl-butan-2-amine hydrochloride], the “differences in half-life and intrinsic clearance compared to R-MBDB HCl salt (reference compound)” value is reported as “significant differences”, the half-life at 0.25 μM is reported as 0.628 h and the microsomal CLint at 0.25 μM is reported as 36.7 µL/min/mg.
